Where two headings read alike, the source gives them in different places.
How the values were obtained:
[1] = Beagle PK evaluation experiment; format: in vivo; details: dog, plasma; for AUC(0-t) / clearance / Vd / half-life / Tmax: dose 1 mg/kg; for clearance: n=3, read-out: Cl_obs iv (clearance rate) (converted); for Vd: n=3, read-out: Vz_obs iv (apparent volume of distribution); for bioavailability: iv/po dose 1/1 mg/kg, n=3, read-out: F % (absolute bioavailability); for Tmax: n=3, median, read-out: Tmax po (time to maximum plasma concentration)
Method: Test samples: the compounds of the present invention, prepared according to exemplary methods.
Administration and Sample Collection:
Experimental compounds 11, 12 and 35 were each dissolved in a mixture of 5% DMSO+20% (30% Solutol)+75% saline to prepare solutions. The compound solutions were administrated via intragastric gavage to beagles at a dose of 1.0 mg/kg, respectively. The blood was collected at time points of 0 min, 15 min, 30 min, 1 h, 2 h, 4 h, 6 h, 8 h, 10 h and 24 h.
(§1) Experimental compounds 11, 12 and 35 were each dissolved in a mixture of 5% DMSO+20% (30% Solutol)+75% saline to prepare solutions. The compound solutions were intravenously injected into beagles at a dose of 1.0 mg/kg, respectively. The blood was collected at time points of 0 min, 5 min, 15 min, 30 min, 1 h, 2 h, 4 h, 6 h, 8 h, 10 h and 24 h. […]
as §1, with “compound 17” for “compounds 11, 12”, “compound 37” for “35”, “PEG400+75% (20% Captisol in Water)” for “(30% Solutol)+75% saline”
Experimental compound 18 was dissolved in a mixture of 5% DMA+30% PEG400+65% (20% Captisol in Saline) to prepare a solution. The compound solution was intravenously injected into a beagle at a dose of 1.0 mg/kg. The blood was collected at time points of 0 min, 5 min, 15 min, 30 min, 1 h, 2 h, 4 h, 6 h, 8 h, 10 h and 24 h.
About 1 mL of blood was collected via the upper extremity, and the collected blood was placed in an anticoagulation tube containing EDTA-K2. The blood samples were centrifuged at 1800 g for 5 min at 4° C. to give plasma samples which were prepared within 30 min after blood collection. The plasma samples were stored in a refrigerator at −80° C. before test.
The samples to be tested were taken out from the refrigerator at −80° C., and vortexed for 5 min after naturally thawed at room temperature. 20 μL of plasma samples were each pipetted into a 1.5 mL centrifuge tube, and 200 μL of internal standard working solution (a solution of tolbutamide in methanol) at 100 ng/mL was added. The resulting mixture was mixed well, vortexed for 5 min, and then centrifuged at 12,000 rpm for 5 min. 50 μL of the supernatant was pipetted into a 96-well plate with 150 μL of water per well, and the plate was vortexed for 5 min and mixed well before LC-MS/MS analysis.
The concentrations of test samples were calculated by Analyst 1.6.3 from AB Sciex. Parameters such as mean, standard deviation and coefficient of variation (excluding those output directly by Analyst 1.6.3) were calculated by Microsoft Excel. PK parameters were calculated by Pharsight Phoenix 6.1 software NCA (Tmax was in median).

H1299 cell pMer = target: T1, H1299 cell pMer (Homo sapiens, UniProt Q12866); test: Inhibitory activity on cell pMer (H1299 cells, Human MerMab stimulation, Western Blot); format: cell-based; details: Human MerMab 200 ng/mL, tested at 0.37, 1.1, 3.3 and 10 nM
T1 construct: endogenous in cells; host or cells: H1299
T1 sequence (Q12866 21-999): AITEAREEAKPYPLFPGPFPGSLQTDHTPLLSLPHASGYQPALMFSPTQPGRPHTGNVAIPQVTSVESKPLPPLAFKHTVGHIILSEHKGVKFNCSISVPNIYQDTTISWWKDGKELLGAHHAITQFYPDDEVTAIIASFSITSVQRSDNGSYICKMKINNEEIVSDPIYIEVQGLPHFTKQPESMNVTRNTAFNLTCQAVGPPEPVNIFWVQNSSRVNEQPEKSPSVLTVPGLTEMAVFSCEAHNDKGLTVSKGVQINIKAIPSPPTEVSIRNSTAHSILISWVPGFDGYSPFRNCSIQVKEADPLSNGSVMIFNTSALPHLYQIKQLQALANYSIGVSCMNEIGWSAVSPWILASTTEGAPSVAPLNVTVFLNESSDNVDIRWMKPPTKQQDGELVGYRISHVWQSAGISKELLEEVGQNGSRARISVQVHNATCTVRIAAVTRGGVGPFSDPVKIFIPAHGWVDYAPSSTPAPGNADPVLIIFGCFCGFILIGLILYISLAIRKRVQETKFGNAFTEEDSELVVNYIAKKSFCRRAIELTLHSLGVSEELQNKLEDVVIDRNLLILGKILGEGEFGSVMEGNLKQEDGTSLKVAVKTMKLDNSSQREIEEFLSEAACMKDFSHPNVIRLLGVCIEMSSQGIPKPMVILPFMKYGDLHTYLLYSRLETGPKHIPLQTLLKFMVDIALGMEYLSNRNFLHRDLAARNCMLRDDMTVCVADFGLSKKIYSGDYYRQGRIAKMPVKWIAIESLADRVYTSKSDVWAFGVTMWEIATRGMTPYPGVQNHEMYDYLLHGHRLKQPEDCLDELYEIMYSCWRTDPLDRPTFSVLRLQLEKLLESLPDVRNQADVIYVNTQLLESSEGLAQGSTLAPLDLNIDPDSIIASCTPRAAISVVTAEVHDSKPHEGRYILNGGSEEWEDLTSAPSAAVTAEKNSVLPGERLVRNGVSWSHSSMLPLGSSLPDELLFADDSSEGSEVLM
Method: H1299 is a non-small cell lung cancer cell.
Test samples: the compounds of the present invention, having structures shown above.
Test instruments: protein electrophoresis apparatus (made by Bio Rad), membrane transfer apparatus (made by Bio Rad), exposure apparatus (made by Tanon), and CO2 cell incubator (made by Thermo).
H1299 cells were inoculated into a 6-well plate (containing 10% FBS 1640 medium, 5×10^5 cells per well) and adherently cultivated at 37° C. and 5% CO2 for 18 h. The cells were starved overnight, and compounds with different concentrations were added. The compounds had final concentrations of 0.37 nM, 1.1 nM, 3.3 nM and 10 nM, with DMSO having a final concentration of 1‰. There was a medium containing 10‰ DMSO in the negative control well. The cells were incubated at 37° C. and 5% CO2 for 60 min, and then Human MerMab (R&D, final concentration: 200 ng/mL) was added to each well. The cells were further incubated for 60 min, and then the total protein of the cells was extracted for Western Blot experiment. Gray analysis was performed on the results with Image J software, and IC50 values were calculated with GraphPad 5.0 software. The inhibitory activities of the compounds on cell pMer were detected.

[2] = iv, n=3, read-out: AUClast iv (area under concentration-time curve for 0-24 h)
[3] = iv, n=3, read-out: tz1/2 iv (terminal half-life) (converted)
[4] = po (gavage), n=3, read-out: AUClast po (area under concentration-time curve for 0-24 h)
[5] = po (gavage), n=3, read-out: tz1/2 po (terminal half-life) (converted)

SMILES | AUC(0-t) [1, 2] [ng·h/mL] | clearance ([1]; iv) [mL/min/kg] | Vd ([1]; iv) [L/kg] | half-life [1, 3] [h] | bioavailability [1] [%] | Tmax ([1]; po (gavage)) [h] | AUC(0-t) [1, 4] [ng·h/mL] | half-life [1, 5] [h] | IC50 (H1299 cell pMer) [nM]
CC(C)n1cc(-c2ccc(F)cc2)c(=O)c(C(=O)Nc2ccc(Oc3ccnc(N)c3Cl)cn2)n1 [Compound 11, N-(5-((2-amino-3-chloropyridin-4-yl)oxy)pyridin-2-yl)-5-(4-fluorophenyl)-1-isopropyl-4-oxo-1,4-dihydropyridazine-3-carboxamide] | 3320 | 4.33 | 5.36 | 15 | 37.3 | 1 | 1360 | 5.97 | 1.1
CC(C)n1cc(-c2ccc(F)cc2)c(=O)c(C(=O)Nc2ncc(Oc3ccnc(N)c3Cl)cn2)n1 [Compound 12, N-(5-((2-amino-3-chloropyridin-4-yl)oxy)pyrimidin-2-yl)-5-(4-fluorophenyl)-1-isopropyl-4-oxo-1,4-dihydropyridazine-3-carboxamide] | 1530 | 10.8 | 1.04 | 1.1 | 78 | 0.5 | 1190 | 1.24 | 1.1
CC(C)n1cc(-c2ccc(F)cc2)c(=O)c(C(=O)Nc2ccc(Oc3ccnc(N)c3Cl)nc2)n1 [Compound 13, N-(6-((2-amino-3-chloropyridin-4-yl)oxy)pyridin-3-yl)-5-(4-fluorophenyl)-1-isopropyl-4-oxo-1,4-dihydropyridazine-3-carboxamide] |  |  |  |  |  |  |  |  | 3.3 to 10
C=CCn1cc(-c2ccc(F)cc2)c(=O)c(C(=O)Nc2ccc(Oc3ccnc(N)c3Cl)cn2)n1 [Compound 35, 1-allyl-N-(5-((2-amino-3-chloropyridin-4-yl)oxy)pyridin-2-yl)-5-(4-fluorophenyl)-4-oxo-1,4-dihydropyridazine-3-carboxamide] | 4120 | 3.83 | 3.16 | 9.32 | 50.7 | 1 | 2200 | 4.01 | 0.37
C=CCn1cc(-c2ccc(F)cc2)c(=O)c(C(=O)Nc2ncc(Oc3ccnc(N)c3Cl)cn2)n1 [Compound 37] | 2600 | 6.83 | 1.07 | 1.79 | 70.6 | 0.5 | 1830 | 1.88 | 3.3
C=CCn1cc(-c2ccc(F)cc2)c(=O)c(C(=O)Nc2ccc(Oc3ccnc(N)c3Cl)nc2)n1 [Compound 39, 1-allyl-N-(6-((2-amino-3-chloropyridin-4-yl)oxy)pyridin-3-yl)-5-(4-fluorophenyl)-4-oxo-1,4-dihydropyridazine-3-carboxamide] |  |  |  |  |  |  |  |  | 3.3 to 10

Results, then the compound that gave them:

AUC(0-t) [1, 2] [ng·h/mL] | clearance ([1]; iv) [mL/min/kg] | Vd ([1]; iv) [L/kg] | half-life [1, 3] [h] | bioavailability [1] [%] | Tmax ([1]; po (gavage)) [h] | AUC(0-t) [1, 4] [ng·h/mL] | half-life [1, 5] [h] | IC50 (H1299 cell pMer) [nM] | SMILES
3360 | 5 | 3.16 | 7.46 | 109 | 1 | 3670 | 13.6 | < 1.1 | Nc1nccc(Oc2ccc(NC(=O)c3nn(C4CC4)cc(-c4ccc(F)cc4)c3=O)nc2)c1Cl [Compound 17, N-(5-((2-amino-3-chloropyridin-4-yl)oxy)pyridin-2-yl)-1-cyclopropyl-5-(4-fluorophenyl)-4-oxo-1,4-dihydropyridazine-3-carboxamide]
3730 | 4.83 | 0.65 | 1.54 | 29.7 | 1 | 1090 | 2 | 1.1 | Nc1nccc(Oc2cnc(NC(=O)c3nn(C4CC4)cc(-c4ccc(F)cc4)c3=O)nc2)c1Cl [Compound 18, N-(5-((2-amino-3-chloropyridin-4-yl)oxy)pyrimidin-2-yl)-5-(4-fluorophenyl)-1-cyclopropyl-4-oxo-1,4-dihydropyridazine-3-carboxamide]
 |  |  |  |  |  |  |  | 10 | Nc1nccc(Oc2ccc(NC(=O)c3nn(C4CC4)cc(-c4ccc(F)cc4)c3=O)cn2)c1Cl [Compound 19, N-(6-((2-amino-3-chloropyridin-4-yl)oxy)pyridin-3-yl)-1-cyclopropyl-5-(4-fluorophenyl)-4-oxo-1,4-dihydropyridazine-3-carboxamide]
 |  |  |  |  |  |  |  | 3.3 | Cn1cc(-c2ccc(F)cc2)c(=O)c(C(=O)Nc2ccc(Oc3ccnc(N)c3Cl)cn2)n1 [Compound 33, N-(5-((2-amino-3-chloropyridin-4-yl)oxy)pyridin-2-yl)-5-(4-fluorophenyl)-1-methyl-4-oxo-1,4-dihydropyridazine-3-carboxamide]
